Measured values reported in patent US8093297B2 (Mutual Pharmaceutical Company, Inc., priority 2009, dated 2012).
Where two headings read alike, the source gives them in different places.

Legend:
[1] = Clinical drug-drug interaction study of colchicine and verapamil (Example 8); conditions: for AUC0-inf: both, human, in vivo, 0.6 mg
Protocol: (§1) This study was an open-label, non-randomized, single-center, one-sequence, two-period drug interaction study conducted in healthy male and female volunteers. Twenty-four (24) non-smoking, non-obese adult volunteers were enrolled. All subjects were dosed and studied as a single cohort, with each subject receiving the same treatment in a non-randomized fashion.
(§2) Pharmacokinetic parameters referred to herein describe the in vivo characteristics of drug (or a metabolite or a surrogate marker for the drug) over time. These include plasma concentration (C), as well as Cmax, Cn, C24, Tmax, and AUC. “Cmax” is the measured plasma concentration of the active agent at the point of maximum, or peak, concentration. “Cmin” is the measured plasma concentration of the active agent at the point of minimum concentration. “Cn” is the measured plasma concentration of the active agent at about n hours after administration. […] The term “Tmax” refers to the time from drug administration until Cmax is reached. “AUC” is the area under the curve of a graph of the measured plasma concentration of an active agent vs. time, measured from one time point to another time point. […] Time t can be the last time point with measurable plasma concentration for an individual formulation. The AUC0-∞, AUC∞ or AUC0-inf is the calculated area under the curve of plasma concentration versus time from time 0 to time infinity.

[2] = clinical; conditions: both, human, plasma, 0.6 mg, colchicine in plasma, single 0.6 mg dose alone (Day 1) or with steady-state diltiazem (Day 21), N=20, arithmetic mean
Protocol: as §1, §2

[3] = test system: FMF patients; conditions: reported; cited from earlier work
[4] = clinical; conditions: both, human, plasma, oral, 0.6 mg, geometric mean, colchicine in plasma, single 0.6 mg dose alone or with steady-state ketoconazole 200 mg b.i.d., ln-transformed data
Description: This study was an open-label, non-randomized, single-center, one-sequence, two-period drug interaction study conducted in healthy male and female volunteers; there will be a 14-day washout between the two periods. Twenty-four (24) non-smoking, non-obese adult volunteers were enrolled.
as §2

[5] = colchicine in plasma, N=23
[6] = clinical; conditions: both, human, plasma, 0.6 mg
Protocol: as §1, §2

[7] = colchicine in plasma; single 0.6 mg dose alone (Day 1) or with steady-state diltiazem (Day 21); N=20; arithmetic mean
Protocol: as §1, §2

[8] = for AUC0-t, geometric mean / AUC∞, geometric mean / Cmax, geometric mean: single 0.6 mg dose alone or with steady-state ritonavir 100 mg b.i.d., ln-transformed data
Protocol: An open-label, non-randomized, single-center, one-sequence, two-period drug interaction study was conducted in healthy male and female volunteers; there will be a 14-day washout between the two periods. Twenty-four (24) non-smoking, non-obese adult volunteers were enrolled. All subjects were dosed and studied as a single cohort, with each subject receiving the same treatment in a non-randomized fashion.
On the evening of Day 18, study participants remained at the clinic for their final study confinement period.
as §2

[9] = not given; remark: listed apart in the source
[10] = clinical; conditions: both, human, plasma, oral, 0.6 mg, colchicine in plasma
Protocol: This study was an open-label, non-randomized, single-center, one-sequence, two-period drug interaction study conducted in healthy male and female volunteers; there was a 14-day washout between the two periods. Twenty-four (24) non-smoking, non-obese adult volunteers were enrolled. All subjects were dosed and studied as a single cohort, with each subject receiving the same treatment in a non-randomized fashion.
Azithromycin was administered for 5 consecutive days (2×250 mg once daily [Day 15 only] and then 1×250 mg once daily Days 16-19) beginning on the morning of Day 15, with the last 250 mg azithromycin dose administered on the morning on Day 19.
Azithromycin plasma concentrations were not measured.
as §2

[11] = Pharmacokinetic study in healthy adults of single vs. multiple oral doses of colchicine tablets (Example 1); conditions: for metabolite plasma concentration: after oral colchicine 0.6 mg single and multiple doses, LOQ 0.2 ng/mL, 13 subjects
Protocol: Subjects received a light breakfast served 60 minutes following dose administration in the morning and the evening dose was administered 90 minutes after an evening meal on Days 15 through 24 only. […] Study periods were separated by a 14-day washout. Following the single dose and the last dose of the multiple dose regimen (beginning on the mornings of Day 1 and Day 25, respectively), blood samples were collected (6 mL each) from each subject within 1 hour prior to dosing and after dose administration at study hours 0.5, 1, 1.5, 2, 3, 4, 6, 8, 10, 12, and 24 (while confined) and 36, 48, 72, and 96 (on an outpatient basis).
In tables, the parameter CL/F denotes the apparent total body clearance after administration, calculated as Total Dose/Total AUC0-tau; and Vd/F denotes the apparent total volume of distribution after administration, calculated as Total Dose/(Total AUC∞×Kel).
These include plasma concentration (C), as well as Cmax, Cn, C24, Tmax, and AUC. “Cmax” is the measured plasma concentration of the active agent at the point of maximum, or peak, concentration. “Cmin” is the measured plasma concentration of the active agent at the point of minimum concentration. “Cn” is the measured plasma concentration of the active agent at about n hours after administration. […] The term “Tmax” refers to the time from drug administration until Cmax is reached. “AUC” is the area under the curve of a graph of the measured plasma concentration of an active agent vs. time, measured from one time point to another time point. […] Time t can be the last time point with measurable plasma concentration for an individual formulation. The AUC0-∞, AUC∞ or AUC0-inf is the calculated area under the curve of plasma concentration versus time from time 0 to time infinity.

[12] = colchicine given concomitantly with the named drug; cited from earlier work
[13] = colchicine in plasma, single 0.6 mg dose alone (Day 1) or with cyclosporine 100 mg (Day 15), N=23
Protocol: as §1, §2

[14] = colchicine in plasma, single 0.6 mg dose alone (Day 1) or with steady-state verapamil (Day 19), N=24, arithmetic mean
[15] = colchicine in plasma, single 0.6 mg dose alone or with steady-state verapamil HCl ER 240 mg once daily
[16] = single 0.6 mg dose alone (Day 1) or with steady-state clarithromycin (Day 29), arithmetic mean
[17] = co-administration with azithromycin
[18] = colchicine in plasma, single 0.6 mg dose alone (Day 1) or with steady-state azithromycin (Day 19), N=21, arithmetic mean
[19] = colchicine in plasma, single 0.6 mg dose alone or with steady-state azithromycin
[20] = colchicine, single 0.6 mg dose alone or with steady-state azithromycin, N=21, arithmetic mean
[21] = following azithromycin 500 mg then 250 mg x 4 days vs colchicine alone
[22] = co-administration with ritonavir 100 mg b.i.d. x 5 days
[23] = colchicine in plasma, single 0.6 mg dose alone (Day 1) or with steady-state ritonavir (Day 19), N=18, arithmetic mean
[24] = following ritonavir 100 mg b.i.d. x 5 days vs colchicine alone
[25] = colchicine in plasma, single 0.6 mg dose alone or with steady-state ketoconazole 200 mg b.i.d., ln-transformed data
[26] = single oral 0.6 mg colchicine following ketoconazole 200 mg b.i.d. x 5 days vs alone
[27] = multiple (b.i.d. x 10 days) oral doses colchicine 0.6 mg, after last dose Day 25, healthy adults N=13
[28] = single oral dose colchicine 0.6 mg, fasted, healthy adults N=13
[29] = colchicine in plasma, listed as Colchicine + Ritonovir

COc1cc2c(c(OC)c1OC)-c1ccc(OC)c(=O)cc1[C@@H](NC(C)=O)CC2 [Colchicine + Verapamil]
AUC0-t [1, 14]: 24.64 ng·h/mL
AUC0-∞ [1, 14]: 30.59 ng·h/mL
Cmax [1, 14]: 3.85 ng/mL
AUC0-t, geometric mean [1, 15]: 23.88921 ng·h/mL
AUC∞, geometric mean [1, 15]: 29.55675 ng·h/mL
Cmax, geometric mean [1, 15]: 3.63968 ng/mL
Tmax ([1]; colchicine in plasma, single 0.6 mg dose alone or with steady-state verapamil, N=24, head says median for Tmax): 1.15 h

COc1cc2c(c(OC)c1OC)-c1ccc(OC)c(=O)cc1[C@@H](NC(C)=O)CC2 [Colchicine, (−)-N-[(7S,12aS)-1,2,3,10-tetramethoxy-9-oxo-5,6,7,9-tetrahydrobenzo[a]heptalen-7-yl]-acetamide]
AUC0-t [2]: 10 ng·h/mL
FMF patients who do not show a beneficial response to colchicine administration [3]: 5-10%
Cmax [4]: 2.6 ng/mL
AUC0-inf [5, 16]: 15.53 ng·h/mL
AUC0-t [5, 16]: 12.37 ng·h/mL
AUC0-inf [6]: 15 ng·h/mL
AUC0-t [6]: 12.6 ng·h/mL
Cmax [6]: 2.72 ng/mL
Tmax [6]: 1.15 h
Cmax [7]: 2.17 ng/mL
decrease in total apparent oral clearance [17]: approximately 30%
effect on Tmax [17]: not affected
AUC0-t [18]: 11.98 ng·h/mL
AUC0-∞ [18]: 14.13 ng·h/mL
AUC∞, geometric mean [19]: 12.9318 ng·h/mL
CL/F [20]: 50.24 L/h
increase in exposure to colchicine (concomitant administration of azithromycin (description)): approximately 46%
increase in exposure to colchicine, AUC0-t [21]: approximately 46%
increase in exposure to colchicine, AUC0-∞ [21]: approximately 40%
increase in mean peak colchicine concentration [21]: approximately 12%
decrease in total apparent oral clearance [8, 22]: 70%
effect on Tmax [8, 22]: not affected
AUC0-∞ [8, 23]: 10.41 ng·h/mL
AUC0-t, geometric mean ([8]; colchicine in plasma): 7.64271 ng·h/mL
AUC∞, geometric mean ([8]; colchicine in plasma): 9.55174 ng·h/mL
Cmax, geometric mean ([8]; colchicine in plasma): 1.79837 ng/mL
increase in exposure to a single 0.6-mg colchicine [8, 24]: approximately 245%
increase in mean peak colchicine concentration [8, 24]: approximately 170%
decrease in total apparent oral clearance ([9]; co-administration with ketoconazole 200 mg b.i.d. x 5 days): 70%
AUC∞, geometric mean [9, 25]: 13.18592 ng·h/mL
increase in AUC0-t of colchicine [9, 26]: 190%
increase in Cmax of colchicine [9, 26]: 90%
Cmax ([10]; single 0.6 mg dose alone (Day 1) or with steady-state azithromycin (Day 19), N=21, arithmetic mean): 2.74 ng/mL
Cmax ([10]; geometric mean, single 0.6 mg dose alone or with steady-state azithromycin): 2.54 ng/mL
AUC0-inf ([1]; AUC0-∞, colchicine in plasma, single 0.6 mg dose alone (Day 1) or with steady-state verapamil (Day 19), N=24, arithmetic mean): 15.4 ng·h/mL
AUC0-inf ([1]; AUC∞, geometric mean, colchicine in plasma, single 0.6 mg dose alone or with steady-state verapamil HCl ER 240 mg once daily): 14.4 ng·h/mL
Cmax [1, 14]: 2.97 ng/mL
AUC0-t, geometric mean [1, 15]: 12.2564 ng·h/mL
CL/F ([1]; colchicine, single 0.6 mg dose alone or with steady-state verapamil, N=24, arithmetic mean): 43.93 L/h
attainment of steady state (trough plasma concentrations) ([11]; 0.6 mg b.i.d.): by approximately the eighth day of dosing for most subjects
elimination half-life ([11]; calculated following a single oral dose, stated not an accurate estimate): approximately 5 hours
Cave, MEAN [11, 27]: 1.69722 ng/mL
Cave, MEDIAN [11, 27]: 1.70192 ng/mL
Cmin, MEDIAN [11, 27]: 0.9035 ng/mL
Ke1, MEAN [11, 27]: 0.0267 h⁻¹
Ke1, MEDIAN [11, 27]: 0.0261 h⁻¹
quantifiability of plasma concentrations after a single dose ([11]; single 0.6 mg oral dose, healthy adults): no longer quantifiable 24 hours post-dose in all but 1 subject
secondary colchicine peak ([11]; single dose or multiple dosing, individual subject data): no subject experienced a secondary colchicine peak
Ke1, MEAN [11, 28]: 0.1829 h⁻¹
Ke1, MEDIAN [11, 28]: 0.1992 h⁻¹
Cmin prior to the morning dose higher than Cmin prior to the evening dose ([11]; steady state, Day 23 and Day 24): approximately 12%

COc1c(O)cc2c(c1OC)-c1ccc(OC)c(=O)cc1[C@@H](NC(C)=O)CC2 [3-DMC, 3-O-demethylcolchciine]
metabolite plasma concentration [11]: only one sample from 1 subject (of 13 subjects) had a detectable

COc1cc2c(c(OC)c1OC)-c1ccc(OC)c(=O)cc1[C@@H](NC(C)=O)CC2 [Colchicine + Diltiazem]
AUC0-t [7]: 17.73 ng·h/mL
AUC0-∞ [7]: 22.49 ng·h/mL
Cmax [7]: 2.80 ng/mL

COc1cc2c(c(OC)c1O)-c1ccc(OC)c(=O)cc1[C@@H](NC(C)=O)CC2 [2-DMC, 2-O-demethylcolchicine]
metabolite plasma concentration [11]: < 0.2 ng/mL

CC[C@H]1OC(=O)[C@H](C)[C@@H](O[C@H]2C[C@@](C)(OC)[C@@H](O)[C@H](C)O2)[C@H](C)[C@@H](O[C@@H]2O[C@H](C)C[C@H](N(C)C)[C@H]2O)[C@](C)(OC)C[C@@H](C)C(=O)[C@H](C)[C@@H](O)[C@]1(C)O [Clarithromycin]
Noted or Anticipated Outcome: toxicity reported with concomitant colchicine [12]: fatal colchicine toxicity

COc1cc2c(c(OC)c1OC)-c1ccc(OC)c(=O)cc1[C@@H](NC(C)=O)CC2 [Colchicine + Azithromycin]
AUC0-t [18]: 17.16 ng·h/mL
Cmax [18]: 3.05 ng/mL
AUC0-t, geometric mean [19]: 16.09052 ng·h/mL
AUC∞, geometric mean [19]: 18.31283 ng·h/mL
Cmax, geometric mean [19]: 2.85622 ng/mL
CL/F [20]: 35.01 L/h
t1/2 [20]: 6.71 h

COc1cc2c(c(OC)c1OC)-c1ccc(OC)c(=O)cc1[C@@H](NC(C)=O)CC2 [Colchicine + Ketoconazole]
AUC0-t, geometric mean [9, 25]: 33.2238 ng·h/mL
AUC∞, geometric mean [9, 25]: 42.143 ng·h/mL
Cmax, geometric mean [9, 25]: 5.0785 ng/mL
Tmax (hr)* ([9]; colchicine in plasma, single 0.6 mg dose alone or with steady-state ketoconazole, N=23, *Median (Range) for Tmax): 1.02 h

COc1cc2c(c(OC)c1OC)-c1ccc(OC)c(=O)cc1[C@@H](NC(C)=O)CC2 [Colchicine + Clarithromycin]
AUC0-inf [5, 16]: 52.62 ng·h/mL
AUC0-t [5, 16]: 41.95 ng·h/mL
Cmax [5, 16]: 8.44 ng/mL
Tmax (hr)* ([5]; single 0.6 mg dose alone or with steady-state clarithromycin, range printed beside): 1.00 h

COc1cc2c(c(OC)c1OC)-c1ccc(OC)c(=O)cc1[C@@H](NC(C)=O)CC2 [Colchicine + Ritonavir]
AUC0-t [8, 23]: 29.05 ng·h/mL
AUC0-∞ [8, 23]: 35.28 ng·h/mL
Cmax [8, 23]: 4.99 ng/mL
AUC0-t, geometric mean [8, 29]: 27.79308 ng·h/mL
AUC∞, geometric mean [8, 29]: 33.77136 ng·h/mL
Cmax, geometric mean [8, 29]: 4.83539 ng/mL

COc1cc2c(c(OC)c1OC)-c1ccc(OC)c(=O)cc1[C@@H](NC(C)=O)CC2 [Colchicine + Cyclosporine]
Tmax (hr)* [13]: 1.13 h
AUC0-inf ([13]; arithmetic mean): 47.31 ng·h/mL
AUC0-t ([13]; arithmetic mean): 39.83 ng·h/mL
Cmax ([13]; arithmetic mean): 8.82 ng/mL
